Measurements reported in patent US20220088014A1 (priority 2019, published 2022).
Where two headings read alike, the source gives them in different places.

Experiments:
[1] = Rat tolerance/dependence study, 28 day repeated dosing and withdrawal
[2] = Cue-induced reinstatement (relapse) in heroin addicted rats; type: in vivo, male Long-Evans hooded rats
[3] = Pretreatment study: effect on heroin self-administration; type: in vivo, rhesus monkeys
[4] = rat, in vivo
[5] = Dose-finding study: lever pressing for food (FR 10); settings: two monkeys
[6] = IV self-administration substitution study in heroin-maintained primates (FR 30)

Row | SMILES | tolerance and dependence ([1]; 30 mg/kg orally twice per day, 28 days) | Active lever presses during the reinstatement test session ([2]; 1 mg/kg s.c. 30 minutes pre-session) | Active lever presses during the reinstatement test session ([2]; 3 mg/kg s.c. 30 minutes pre-session) | Active lever presses during the reinstatement test session ([2]; 10 mg/kg s.c. 30 minutes pre-session) | Heroin infusions per session (mean ± SEM, N = 4) ([3]; pretreatment 0.1 mg/kg IV 15 minutes prior) | Heroin infusions per session (mean ± SEM, N = 4) ([3]; pretreatment 1.0 mg/kg IV 15 minutes prior) | Heroin infusions per session (mean ± SEM, N = 4) ([3]; pretreatment 1.0 mg/kg SC (100% PEG) 15 minutes prior) | t-1/2 ([4]; po, 10 mg/kg) [h] | t-1/2 ([4]; sc, 3 mg/kg) [h] | average rate of responding for food ([5]; 0.0001 mg/kg IV) [responses per second] | average rate of responding for food ([5]; 0.001 mg/kg IV) [responses per second] | average rate of responding for food ([5]; 0.01 mg/kg IV) [responses per second] | average rate of responding for food ([5]; 0.1 mg/kg IV) [responses per second] | predominant behavioral and physical effects during the dosing phase ([1]; 0.3 mg/kg s.c. four times per day) | tolerance during dosing for 28 days ([1]; 0.3 and 3 mg/kg s.c. four times per day) | physical dependence upon cessation of dosing ([1]; 0.3 and 3 mg/kg s.c. four times per day, 28 days) | effect on animal body weight, food and water intake or body temperature ([1]; 0.3 and 3 mg/kg s.c. four times per day, on-dose or withdrawal phase) | main behavioral and physical signs during the dosing phase ([1]; higher dose, 3 mg/kg s.c. four times per day) | Infusions per session (mean ± SEM, N = 4) ([6]; 0.01 mg/kg/infusion IV) | Infusions per session (mean ± SEM, N = 4) ([6]; 0.1 mg/kg/infusion IV)
1 | CN1CC[C@]23c4c5ccc(O)c4O[C@H]2[C@@H](O)C=C[C@H]3[C@H]1C5 [Morphine, morphine, reference compound] | clear signs of tolerance and dependence | – | – | – | – | – | – | – | – | – | – | – | – | – | – | – | – | – | – | –
2 | O=C1CN2c3c(cccc3[C@@H]3CN(CCCOc4ccc(F)cc4)CC[C@@H]32)N1 [Example 1, (6bR,10aS)-8-(3-(4-fluorophenoxy)propyl)-6b,7,8,9,10,10a-hexahydro-1H-pyrido[3′,4′:4,5]pyrrolo[1,2,3-de]quinoxalin-2(3H)-one] | – | 22.64 | 31.17 | 29.50 | 24.8 ± 0.8 | 23.3 ± 2.8 | 24.5 ± 1.9 | 3.1 | 9.5 | 0.94±0.01 | 0.86±0.11 | 0.97±0.21 | 0.98±0.24 | hunched posture, Straub tail and piloerection | does not produce tolerance | not to produce a syndrome of physical dependence | no significant effect | hunched posture, subdued behavior, Straub tail, tail rattle and piloerection | 0.6 ± 0.2 | 1.5 ± 0.3
